Test results from patent publication US20230203059A1, “MACROCYCLIC JAK INHIBITOR AND USES THEREOF” (Biopolar Hongye (Guangdong) Pharmaceutical Co. Ltd., priority 2020, published 2023).
Like-named read-outs stand apart in the source and are kept apart here.

Tests used:
Format in all cases: biochemical
TYK2 = TYK2 (Homo sapiens, UniProt P29597); assay: JAK kinase activity, homogeneous time-resolved fluorescence (TYK2 reaction system); details: ATP 2 μM, TYK2 protein 0.2 ng/μL; read-out: TYK 2 activity
How it was run: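 Activity read as the 665 nm/615 nm ratio after adding EDTA-containing detection mix with anti-phospho-substrate antibody and XL-615. Beforehand, 0.2 ng/μL TYK2, 2 μM ATP, substrate and compound reacted 1 h in pH 7.0 Hepes buffer with MgCl2 and DTT. IC50 fitted with Hill-slope equation.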

JAK3 = biological target: T1, JAK3 (Homo sapiens, UniProt P52333); assay: JAK kinase activity, homogeneous time-resolved fluorescence (JAK3 reaction system)
T1 sequence (P52333 1-1124): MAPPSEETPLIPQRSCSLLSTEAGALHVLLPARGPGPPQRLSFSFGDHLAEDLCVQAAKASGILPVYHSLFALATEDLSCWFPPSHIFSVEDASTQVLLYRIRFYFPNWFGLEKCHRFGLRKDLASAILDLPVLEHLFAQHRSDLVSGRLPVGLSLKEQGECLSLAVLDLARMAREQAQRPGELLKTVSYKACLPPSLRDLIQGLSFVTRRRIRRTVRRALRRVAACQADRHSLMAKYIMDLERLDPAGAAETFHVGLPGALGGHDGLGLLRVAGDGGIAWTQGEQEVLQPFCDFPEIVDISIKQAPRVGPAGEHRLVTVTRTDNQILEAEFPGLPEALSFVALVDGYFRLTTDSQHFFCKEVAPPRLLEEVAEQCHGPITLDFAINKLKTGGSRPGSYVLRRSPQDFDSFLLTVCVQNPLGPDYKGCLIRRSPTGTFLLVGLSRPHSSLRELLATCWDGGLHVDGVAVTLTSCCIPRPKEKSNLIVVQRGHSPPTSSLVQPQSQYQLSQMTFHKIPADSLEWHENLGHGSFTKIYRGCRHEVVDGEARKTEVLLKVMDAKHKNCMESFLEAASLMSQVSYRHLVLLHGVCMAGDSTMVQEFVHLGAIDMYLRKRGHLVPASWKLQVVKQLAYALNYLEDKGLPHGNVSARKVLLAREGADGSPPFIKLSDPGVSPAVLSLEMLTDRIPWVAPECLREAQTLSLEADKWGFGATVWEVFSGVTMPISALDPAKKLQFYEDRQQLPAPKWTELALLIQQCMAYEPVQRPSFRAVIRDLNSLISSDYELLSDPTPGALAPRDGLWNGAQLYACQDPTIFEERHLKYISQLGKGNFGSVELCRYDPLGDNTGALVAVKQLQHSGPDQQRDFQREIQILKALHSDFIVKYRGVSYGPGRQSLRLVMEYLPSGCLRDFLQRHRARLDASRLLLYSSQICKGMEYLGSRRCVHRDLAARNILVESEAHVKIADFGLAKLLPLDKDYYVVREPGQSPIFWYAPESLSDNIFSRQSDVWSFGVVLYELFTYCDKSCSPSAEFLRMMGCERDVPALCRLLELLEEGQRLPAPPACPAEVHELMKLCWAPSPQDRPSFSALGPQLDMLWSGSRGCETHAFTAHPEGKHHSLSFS

JAK2 = JAK2 (Homo sapiens, UniProt O60674); assay: JAK kinase activity, homogeneous time-resolved fluorescence (JAK2 reaction system); details: ATP 2 μM, JAK2 protein 0.01 ng/μL
How it was run: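 IC50 derived by Hill-equation fit of the 665/615 nm time-resolved fluorescence ratio after EDTA-containing detection mix with anti-phosphosubstrate antibody. Preceding 1 h reaction contained 2 μM ATP, 0.01 ng/μL JAK2, substrate, 50 mM Hepes pH 7.0, 5 mM MgCl2, 1 mM DTT.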

JAK1 = JAK1 (Homo sapiens, UniProt P23458); assay: JAK kinase activity, homogeneous time-resolved fluorescence (JAK1 reaction system); details: ATP 2 μM, JAK1 protein 0.2 ng/μL; read-out: JAK 1 activity
How it was run: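 Kinase activity read as the 665 nm/615 nm time-resolved fluorescence ratio (320 nm excitation) after EDTA-containing antibody and XL-615 addition. Reaction ran 1 h at pH 7.0 (Hepes, MgCl2, DTT) with 0.2 ng/μL JAK1 and ATP at 2 μM. IC50 derived by Hill-slope fit.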

[1] = ATP 2 μM, JAK3 protein 0.04 ng/μL, read-out: JAK 3 activity

Sequence of JAK2 (O60674 whole entry): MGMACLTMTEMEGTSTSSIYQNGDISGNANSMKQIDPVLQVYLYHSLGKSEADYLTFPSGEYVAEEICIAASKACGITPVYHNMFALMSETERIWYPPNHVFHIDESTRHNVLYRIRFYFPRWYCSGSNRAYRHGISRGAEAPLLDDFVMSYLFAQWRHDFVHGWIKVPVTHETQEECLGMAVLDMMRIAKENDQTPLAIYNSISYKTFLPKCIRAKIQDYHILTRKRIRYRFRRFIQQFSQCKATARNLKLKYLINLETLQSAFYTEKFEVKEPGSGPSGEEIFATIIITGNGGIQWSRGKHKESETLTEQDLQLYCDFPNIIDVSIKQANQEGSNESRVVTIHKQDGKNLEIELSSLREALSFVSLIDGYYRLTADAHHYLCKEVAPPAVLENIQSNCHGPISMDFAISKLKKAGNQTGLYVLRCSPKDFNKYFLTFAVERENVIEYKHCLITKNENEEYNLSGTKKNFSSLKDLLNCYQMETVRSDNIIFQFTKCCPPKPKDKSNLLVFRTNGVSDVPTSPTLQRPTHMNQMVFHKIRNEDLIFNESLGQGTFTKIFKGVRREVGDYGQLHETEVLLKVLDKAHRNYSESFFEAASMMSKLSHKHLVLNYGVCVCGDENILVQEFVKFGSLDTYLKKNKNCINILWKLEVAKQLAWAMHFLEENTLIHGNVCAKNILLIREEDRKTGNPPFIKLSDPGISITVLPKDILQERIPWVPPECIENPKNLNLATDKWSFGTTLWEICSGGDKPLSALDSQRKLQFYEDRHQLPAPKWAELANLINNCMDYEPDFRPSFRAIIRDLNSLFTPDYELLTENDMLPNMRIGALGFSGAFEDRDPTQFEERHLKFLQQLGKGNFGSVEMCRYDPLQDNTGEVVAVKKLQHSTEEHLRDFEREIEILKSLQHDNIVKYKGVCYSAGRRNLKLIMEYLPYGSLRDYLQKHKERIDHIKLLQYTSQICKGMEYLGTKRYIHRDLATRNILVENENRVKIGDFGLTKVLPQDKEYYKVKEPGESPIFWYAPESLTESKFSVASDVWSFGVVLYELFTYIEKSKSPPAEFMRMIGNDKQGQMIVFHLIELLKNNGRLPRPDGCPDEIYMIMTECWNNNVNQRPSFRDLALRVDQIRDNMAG
Sequence of JAK1 (P23458 whole entry): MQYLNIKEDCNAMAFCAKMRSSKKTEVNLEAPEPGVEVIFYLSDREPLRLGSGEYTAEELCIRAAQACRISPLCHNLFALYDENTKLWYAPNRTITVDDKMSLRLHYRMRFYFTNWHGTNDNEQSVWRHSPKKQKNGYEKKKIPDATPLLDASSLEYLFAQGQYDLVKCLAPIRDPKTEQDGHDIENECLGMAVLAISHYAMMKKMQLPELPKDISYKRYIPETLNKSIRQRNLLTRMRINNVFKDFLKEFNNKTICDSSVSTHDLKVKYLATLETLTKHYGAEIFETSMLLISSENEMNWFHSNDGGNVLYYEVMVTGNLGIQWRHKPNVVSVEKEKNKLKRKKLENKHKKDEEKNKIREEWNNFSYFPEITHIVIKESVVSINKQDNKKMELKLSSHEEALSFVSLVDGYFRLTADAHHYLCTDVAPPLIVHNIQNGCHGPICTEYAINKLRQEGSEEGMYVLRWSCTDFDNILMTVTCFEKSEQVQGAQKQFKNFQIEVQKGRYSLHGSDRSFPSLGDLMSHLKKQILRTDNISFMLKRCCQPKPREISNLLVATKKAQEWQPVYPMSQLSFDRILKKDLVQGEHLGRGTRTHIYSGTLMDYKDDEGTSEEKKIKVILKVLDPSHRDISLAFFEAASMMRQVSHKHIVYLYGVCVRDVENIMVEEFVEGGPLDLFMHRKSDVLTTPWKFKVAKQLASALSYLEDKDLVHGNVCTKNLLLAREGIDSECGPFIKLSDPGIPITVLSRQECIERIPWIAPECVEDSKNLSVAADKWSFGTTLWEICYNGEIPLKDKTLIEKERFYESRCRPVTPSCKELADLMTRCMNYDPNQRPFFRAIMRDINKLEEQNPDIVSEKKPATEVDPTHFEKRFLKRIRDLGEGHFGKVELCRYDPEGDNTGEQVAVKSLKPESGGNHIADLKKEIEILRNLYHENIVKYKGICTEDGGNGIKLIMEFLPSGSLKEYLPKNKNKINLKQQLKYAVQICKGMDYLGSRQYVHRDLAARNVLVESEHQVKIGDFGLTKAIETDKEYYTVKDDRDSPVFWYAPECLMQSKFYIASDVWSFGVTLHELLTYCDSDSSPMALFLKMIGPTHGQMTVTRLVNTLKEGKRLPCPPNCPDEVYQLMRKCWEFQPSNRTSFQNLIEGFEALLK
Sequence of TYK2 (P29597 whole entry): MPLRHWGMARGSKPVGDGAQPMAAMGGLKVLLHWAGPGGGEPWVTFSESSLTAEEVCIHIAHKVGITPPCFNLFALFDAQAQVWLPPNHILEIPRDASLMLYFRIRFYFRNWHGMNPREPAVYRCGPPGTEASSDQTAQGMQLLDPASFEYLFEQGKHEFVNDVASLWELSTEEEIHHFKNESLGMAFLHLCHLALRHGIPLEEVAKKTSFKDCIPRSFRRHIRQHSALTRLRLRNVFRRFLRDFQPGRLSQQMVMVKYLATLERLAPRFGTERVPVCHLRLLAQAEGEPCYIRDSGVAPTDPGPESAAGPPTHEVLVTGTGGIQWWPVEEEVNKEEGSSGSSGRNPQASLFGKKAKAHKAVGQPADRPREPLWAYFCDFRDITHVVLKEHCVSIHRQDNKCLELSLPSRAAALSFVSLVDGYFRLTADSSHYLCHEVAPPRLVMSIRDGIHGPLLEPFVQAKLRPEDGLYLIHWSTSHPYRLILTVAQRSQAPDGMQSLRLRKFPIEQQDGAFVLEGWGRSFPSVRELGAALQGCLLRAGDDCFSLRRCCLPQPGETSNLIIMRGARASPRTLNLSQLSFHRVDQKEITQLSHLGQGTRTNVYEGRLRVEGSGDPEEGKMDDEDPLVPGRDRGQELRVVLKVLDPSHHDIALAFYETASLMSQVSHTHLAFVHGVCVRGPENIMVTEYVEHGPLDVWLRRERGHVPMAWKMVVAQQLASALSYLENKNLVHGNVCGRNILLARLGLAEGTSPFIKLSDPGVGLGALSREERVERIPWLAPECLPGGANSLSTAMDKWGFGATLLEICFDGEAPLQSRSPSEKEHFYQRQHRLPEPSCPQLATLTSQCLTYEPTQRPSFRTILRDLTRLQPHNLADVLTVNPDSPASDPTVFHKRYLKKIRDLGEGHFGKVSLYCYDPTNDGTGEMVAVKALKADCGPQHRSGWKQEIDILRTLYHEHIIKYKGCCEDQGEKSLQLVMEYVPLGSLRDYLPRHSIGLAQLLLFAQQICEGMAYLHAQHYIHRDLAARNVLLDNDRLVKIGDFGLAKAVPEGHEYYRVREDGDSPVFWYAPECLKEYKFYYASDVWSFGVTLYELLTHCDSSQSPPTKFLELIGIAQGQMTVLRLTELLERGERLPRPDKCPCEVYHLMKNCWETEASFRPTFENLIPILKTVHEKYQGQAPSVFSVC

Row | IC50 (TYK2) | IC50 (JAK3; [1]) | IC50 (JAK2) | IC50 (JAK1) | SMILES | IC50 (JAK3)
1 | > 10000 nM | 101 to 1000 nM | 1000 to 10000 nM | 1000 to 10000 nM | CC1CCNC(=O)c2ccc(c([N+](=O)[O-])c2)-c2ccnc(n2)Nc2ccc(OC3CCCOC3)c(c2)COC1 (stereo not shown) [Example 137, 8-methyl-1^2-nitro-4^4-((tetrahydro-2H-pyran-3-yl)oxy)-6-oxa-3,11-di-aza-2(4,2)-pyrimidina-1(1,4),4(1,3)-dibenzenacyclododecaphan-12-one] | 
2 | > 10000 nM | 101 to 1000 nM | > 10000 nM | 1000 to 10000 nM | O=C1NCCCCOCc2cc(ccc2OCc2ccccc2)Nc2nccc(n2)-c2ccc1cc2[N+](=O)[O-] [Example 117, 4^4-(benzyloxy)-1^2-nitro-6-oxa-3,1,1-diaza-2(4,2)-pyrimidina-1(1,4),4(1,3)-dibenzenacyclododecaphan-12-one] | 
3 | > 10000 nM | 101 to 1000 nM | 1000 to 10000 nM | > 10000 nM | O=C1NCCCCOCc2cc(ccc2OCC2CCCOC2)Nc2nccc(n2)-c2ccc1cc2[N+](=O)[O-] (stereo not shown) [Example 146, 1^2-nitro-4^4-((tetrahydro-2H-pyran-3-yl)methoxy)-6-oxa-3,11-diaza-2(4,2)-pyrimidina-1(1,4),4(1,3)-dibenzenacyclododecaphan-12-one] | 
4 | 1000 to 10000 nM | 11 to 100 nM | 101 to 1000 nM | 1000 to 10000 nM | Nc1cc2ccc1-c1ccnc(n1)Nc1ccc(F)c(c1)COCCCCNC2=O [Example 69, 1^2-amino-4^4-fluoro-6-oxa-3,11-diaza-2(4,2)-pyrimidina-1(1,4),4(1,3)-di-benzenacyclododecaphan-12-one] | 
5 | 1000 to 10000 nM | 101 to 1000 nM | 101 to 1000 nM | 1000 to 10000 nM | CC1CCOCc2cc(ccc2OC2CCCOC2)Nc2nccc(n2)-c2ccc(cc2[N+](=O)[O-])C(=O)NC1 (stereo not shown) [Example 162, 9-methyl-1^2-nitro-4^4-((tetrahydro-2H-pyran-3-yl)oxy)-6-oxa-3,11-di-aza-2(4,2)-pyrimidina-1(1,4),4(1,3)-dibenzenacyclododecaphan-12-one] | 
6 | > 10000 nM | 101 to 1000 nM | 1000 to 10000 nM | 1000 to 10000 nM | CN1CCN(c2ccc3cc2COCCCCNC(=O)c2ccc(c([N+](=O)[O-])c2)-c2ccnc(n2)N3)CC1 [Example 59, 1^2-nitro-4^4-(4-methylpiperazin-1-)-6-oxa-3,11-diaza-2(4,2)-pyrimidina-1(1,4),4(1,3)-dibenzenacyclododeca-phan-12-one] | 
7 | 1000 to 10000 nM | 11 to 100 nM | 101 to 1000 nM | 1000 to 10000 nM | CC1CCOCc2cc(ccc2OCC2CCCC2)Nc2nccc(n2)-c2ccc(cc2N)C(=O)NC1 (stereo not shown) [Example 169, 1^2-amino-4^4-(cyclopentylmethoxy)-9-methyl-6-oxa-3,11-diaza-2(4,2)-pyrimidina-1(1,4),4(1,3)-dibenzena-cyclododecaphan-12-one] | 
8 | > 10000 nM | 11 to 100 nM | 101 to 1000 nM | 101 to 1000 nM | CC(C)Oc1ccc2cc1COCC[C@H](C)CNC(=O)c1ccc(c(N)c1)-c1ccnc(n1)N2 [Example 189, (S)-1^2-amino-4^4-isopropoxy-9-meth-yl-6-oxa-3,11-diaza-2(4,2)-pyrimi-dina-1(1,4),4(1,3)-dibenzenacyclo-dodecaphan-12-one] | 
9 | > 10000 nM | 11 to 100 nM | > 10000 nM | > 10000 nM | Nc1cc2ccc1-c1ccnc(n1)Nc1ccc(OCC3CC(F)(F)C3)c(c1)COc1ccc(cc1)NC2=O [Example 210, 1^2-amino-4^4-((3,3-difluorocyclobutyl)methoxy)-6-oxa-3,8-diaza-2(4,2)-pyrimidina-1,7(1,4),4(1,3)-tribenz-enacyclononaphane-9-one] | 
10 | 1000 to 10000 nM | 11 to 100 nM | 101 to 1000 nM | 1000 to 10000 nM | COc1cc(F)cc(F)c1COc1ccc2cc1COCC[C@@H](C)CNC(=O)c1ccc(c(N)c1)-c1ccnc(n1)N2 [Example 188, (R)-1^2-amino-4^4-((2,4-difluoro-6-methoxybenzyl)oxy)-9-methyl-6-o-xa-3,11-diaza-2(4,2)-pyrimidina-1(1,4),4(1,3)-dibenzenacyclo-dodecaphan-12-one] | 
11 | 1000 to 10000 nM | 101 to 1000 nM | 101 to 1000 nM | 101 to 1000 nM | O=C1NCCCCOCc2cc(ccc2Cl)Nc2nccc(n2)-c2ccc1cc2[N+](=O)[O-] [Example 60, 1^2-nitro-4^4-chloro-6-oxa-3,11-diaza-2(4,2)-pyrimidina-1(1,4),4(1,3)-di-benzenacyclododecaphan-12-one] | 
12 | > 10000 nM | 1000 to 10000 nM | 1000 to 10000 nM | 1000 to 10000 nM | O=C1NCCCCOCc2cc(ccc2OCC2COC2)Nc2nccc(n2)-c2ccc1cc2[N+](=O)[O-] [Example 163, 1^2-nitro-4^4-(oxetan-3-ylmethoxy)-6-oxa-3,11-diaza-2(4,2)-pyrimidina-1(1,4),4(1,3)-dibenzenacyclo-dodecaphan-12-one] | 
13 | 1000 to 10000 nM | 11 to 100 nM | 101 to 1000 nM | 1000 to 10000 nM | Nc1cc2ccc1-c1ccnc(n1)Nc1ccc(OCC(F)(F)F)c(c1)COCCCCNC2=O [Example 109, 1^2-amino-4^4-(2,2,2-trifluoroethoxy)-6-oxa-3,11-diaza-2(4,2)-pyrimidi-na-1(1,4),4(1,3)-dibenzenacyclo-dodecaphan-12-one] | 
14 | 101 to 1000 nM | < 10 nM | 11 to 100 nM | 101 to 1000 nM | Nc1cc2ccc1-c1ccnc(n1)Nc1ccc(N3CCCCC3)c(c1)COCCCCNC2=O [Example 55, 1^2-amino-4^4-(piperidin-1-)-6-oxa-3,11-diaza-2(4,2)-pyrimidina-1(1,4),4(1,3)-dibenzenacyclododecaphan-12-one] | 
15 | 11 to 100 nM | < 10 nM | < 10 nM | 11 to 100 nM | O=C1NCCCCOCc2cc(ccc2N2CCOCC2)Nc2nccc(n2)-c2ccc1c(F)c2 [Example 10, 1^3-fluoro-4^4-morpholin-6-oxa-3,11-diaza-2(4,2)-pyrimidina-1(1,4),4(1,3)-dibenzenacyclododecaphan-12-one] | 
16 | > 10000 nM | 1000 to 10000 nM | 1000 to 10000 nM | > 10000 nM | O=C1Nc2ccc(cc2)OCc2cc(ccc2OCC2CC(F)(F)C2)Nc2nccc(n2)-c2ccc1cc2[N+](=O)[O-] [Example 209, 4^4-((3,3-difluorocyclobutyl)methoxy)-1^2-nitro-6-oxa-3,8-diaza-2(4,2)-pyrimidina-1,7(1,4),4(1,3)-tri-benzenacyclononaphane-9-one] | 
17 | > 10000 nM | 11 to 100 nM | 101 to 1000 nM | 101 to 1000 nM | Nc1cc2ccc1-c1ccnc(n1)Nc1ccc(Br)c(c1)COCCCCNC2=O [Example 90, 1^2-amino-4^4-bromo-6-oxa-3,11-diaza-2(4,2)-pyrimidina-1(1,4),4(1,3)-di-benzenacyclododecaphan-12-one] | 
18 | > 10000 nM | 101 to 1000 nM | 1000 to 10000 nM | > 10000 nM | CC1CCNC(=O)c2ccc(c([N+](=O)[O-])c2)-c2ccnc(n2)Nc2ccc(OC3CC3)c(c2)COC1 (stereo not shown) [Example 103] | 

Row | SMILES | IC50 (TYK2) | IC50 (JAK3; [1]) | IC50 (JAK2) | IC50 (JAK1) | IC50 (JAK3)
19 | O=C1NCCCCOCc2cc(ccc2N2CCSCC2)Nc2nccc(n2)-c2ccc1cc2 [Example 6, 4^4-thiomorpholin-6-oxa-3,11-diaza-2(4,2)-pyrimidina-1(1,4),4(1,3)-dibenze-nacyclododecaphan-12-one] | 101 to 1000 nM |  | 11 to 100 nM | 101 to 1000 nM | 11 to 100 nM
